Test results from patent publication US12410174B1, “Small molecular inhibitors of sting signaling compositions and methods of use” (TYERELL IMMUNOTHERAPEUTICS INC, priority 2020, dated 2025).
Entries after “also recorded” stand apart in the source; their conditions may differ.

What was measured:
STING signaling [1] = assay: Luciferase live cell assay, type I IFN promoter in hTERT-pIFNβ-Glu cells after ISD transfection; format: cell-based, human; conditions: for criteria to inhibit STING dependent signaling (type I IFN promoter in human cells): test of the 25 novel analogs; for inhibitory activity of the type I IFN promoter (luciferase induction): hTERT-pIFNβ-Glu cells, 50 μM or 25 μM, in response to ISD
Experimental: Inhibition of IFNβ expression was measured by Luciferase induction at 24 hours after transfection of ISD, Mock is shown (210), ISD treatment only (220) was used as a control, according to an embodiment of the invention;
Example 1: Identification of small molecule antagonists of STING. In the presence of cytosolic DNA species, STING becomes activated to drive the transcription of cytokines such as type I IFN. Compounds binding to STING via TSA were subsequently examined for their ability to prevent cytosolic DNA species from activating the type I interferon (IFN) promoter, using a live cell assay. This assay comprised immortalized human fibroblasts that were stably transfected with the type I IFN promoter driving luciferase as well as the CMV promoter driving SEAP (hTERT-pIFNβ-Glu). The live cell assay has previously been disclosed in PCT/JS2019/025380 entitled IFN-βETA REPORTER SYSTEM FOR IMMORTALIZED PRIMARY CELLS inventor Glen N. Barber, which was filed Apr. 2, 2018 and published as WO2019195285, and which is herein incorporated by reference in its entirety and for all purposes. The ability of the small molecules to prevent activation of the type I IFN promoter and the transcription of luciferase, but not SEAP in response to cytosolic DNA species was assessed. The activation of STING, typically by CDNs, in turn activates the transcription factors NF-κB and IRF3, both of which are required to induce the transcriptional stimulation of the Type I IFN promoter, but not the CMV promoter as IRF3 and NF-kB transcription factor binding sites are not contained in the CMV promoter. The assay identified the small molecule Compound Y1 in the first screen (HTS), where the level of luciferase was not able to activate the type I IFN promoter or induce the expression of luciferase (see Table I).
Example 4: hTERT-BJ1 Telomerase Fibroblasts (hTERT) were originally purchased from Clontech and were cultured in 4:1 ratio of DMEM:Medium 199 supplement with 10% FBS, 4 mM L-Glutamine and 1 mM sodium pyruvate at 37° C. in a 5% CO2-humidified atmosphere. hTERT-BJ1 Telomerase Fibroblasts stably expressing the luciferase gene under the control of the interferon-beta promoter and SEAP gene under control of the CMV promoter) (hTERT-pIFNβ-Glu) were generated by the Barber laboratory.
Example 7: Luciferase assay: hTERT-BJ1 Telomerase Fibroblasts stably expressing the luciferase gene under the control of the interferon-beta promoter and SEAP gene under control of the CMV promoter) (hTERT-pIFNβ-Glu) were generated by the Barber laboratory. Luciferase assay was performed using Secrete-Pair Dual Luminescence Assay Kit from GeneCopoeia following the manufacturer's protocol.

STING signaling [2] = assay: qPCR of IFNβ1 / Cxcl10 in normal hTERT cells after ISD transfection; format: cell-based, human; conditions: normal hTERT cells stimulated with ISD; 50 μM, 25 μM or 5 μM
Experimental: (§1) Example 11: qPCR total RNA were reverse-transcribed using M-MLV Reverse Transcriptase (Promega). Real-time PCR was performed using Taqman Gene Expression Assay (Applied Biosystems) for innate immune genes and inflammatory cytokines.

STING signaling [3] = assay: Confocal analysis of STING trafficking and IRF3 translocation in hTERT cells; format: cell-based, human; conditions: 6 hours after ISD transfection
Experimental: FIG. 2E are photographs showing confocal analysis of STING trafficking using anti-Sting performed at 6 hours after ISD transfection with Y1+220/without 220, Mock is shown (210), ISD treatment only (220) was used as control, treatment same as in FIG. 2A, according to an embodiment of the invention;
Example 10: Immunofluorescence Microscopy: Cells were cultured and treated in their appropriate media on Lab-Tek II chamber slides. Cell were fixed with 4% paraformaldehyde for 15 minutes in at 37° C. and permeabilized with 0.05% Triton X-100 for 5 minutes at room temperature. Immunostaining was performed with rabbit-anti-STING polyclonal, rabbit-anti-IRF3 (Santa Cruz Biotechnology) or rabbit-anti-p65 (Cell Signaling) followed by fluorescence conjugated secondary antibodies (FITC-goat-anti-rabbit) (Invitrogen).

STING signaling [4] = assay: qPCR of Cxcl10 / Cxcl5 in MEF cells after ISD transfection; format: cell-based, murine
Experimental: MEFs were obtained from E13.5 embryos by a standard procedure. Bone Marrow Derived Macro-phages (BMDM) were isolated from hind-limb femurs of 8-10 weeks old WT and Trex1 KO (TKO) mice. The hematopoietic cells from the bone marrow were cultured in complete DMEM (Invitrogen) including 10 ng/ml of Mouse Recombinant Colony-Stimulating Factor (M-CSF, R&D Systems) for 10 to 14 days.
as §1

STING signaling [5] = assay: Western blot of STING, TBK1 and IRF3 phosphorylation in MEF cells; format: cell-based, murine; conditions: cytosolic DNA
Experimental: Example 8: Immunoblot analysis: Equal amounts of proteins were resolved on sodium dodecyl sulfate (SDS)-Polyacrylamide gels and then transferred to polyvinylidene fluoride (PVDF) membranes (Millipore). After blocking with 5% Blocking Reagent, membranes were incubated with various primary antibodies (and appropriate secondary antibodies). The image was resolved using an enhanced chemiluminescence system ECL (Thermo Scientific) and detected by autoradiography (Kodak). Antibodies: rabbit polyclonal antibody against STING was developed in our laboratory as described previously in Ishikawa et al, 2008; other antibodies were obtained from following sources: β-actin (Sigma Aldrich), p-IRF3 (Cell Signaling), IRF3 (Santa Cruz Biotechnology), p-p65 (Cell Signaling), p65 (Cell Signaling), p-TBK1 (Cell Signaling), TBK1 (Abcam), cGAS (Cell Signaling).

TREX1-deficient mice = assay: Treatment of TREX1 knockout (TKO) mice: survival and heart histopathology; format: in vivo, mouse
Experimental: Example 12: Mouse Treatment: Trex1 Hetero knockout mice (Trex1^+/−) were generated by crossing the hetero mice. Mouse genotypes from tail biopsies were determined using Real Time PCR with specific probes designed for each gene by commercial vendor (Transnetyx). Trex1 KO (TKO) mice (4-5 weeks old) were intraperitoneally injected with 25 μg Z811 per mouse in 200 μL 1% DMSO in PBS. The mice were injected three times a week for 5 months. The survival rates were evaluated.
Example 13: Histopathology. Mice are sacrificed and the heart tissues were fixed in 10% formalin for 48 hours.

N#Cc1c(NC(=O)c2ccccc2Cl)n(CCOc2ccccc2)c2nc3ccccc3nc12 [Compound Y2, 2-chloro-N-[3-cyano-1-(2-phenoxyethyl)-1H-pyrrolo [2,3-b]quinoxalin-2-yl] benzamide]
criteria to inhibit STING dependent signaling (type I IFN promoter in human cells) (STING signaling [1]): found to meet the criteria to inhibit STING dependent signaling; also recorded: found to meet the criteria to inhibit STING dependent signaling and showed the most effective inhibitory activity

COCCn1c(NC(=O)c2ccccc2Cl)c(C#N)c2nc3ccccc3nc21 [Compound Y3, 2-chloro-N-[3-cyano-1-(2-methoxyethyl)-1H-pyrrolo [2,3-ß]iquinoxalin-2-yl] benzamide]
criteria to inhibit STING dependent signaling (type I IFN promoter in human cells) (STING signaling [1]): found to meet the criteria to inhibit STING dependent signaling; also recorded: found to meet the criteria to inhibit STING dependent signaling and showed the most effective inhibitory activity

Cc1ccc(Cl)c(C(=O)Nc2c(C#N)c3nc4ccccc4nc3n2CCc2ccccc2)c1 [Compound Y4, 2-chloro-N-[3-cyano-1-(2-phenylethyl)-1H-pyrrolo [2,3-b]quinoxalin-2-yl]-5-methylbenzamide]
inhibitory activity of the type I IFN promoter (luciferase induction) (STING signaling [1]): showed robust inhibitory activity of the type I IFN promoter | criteria to inhibit STING dependent signaling (type I IFN promoter in human cells) (STING signaling [1]): found to meet the criteria to inhibit STING dependent signaling; also recorded: found to meet the criteria to inhibit STING dependent signaling and showed the most effective inhibitory activity | production of STING-inducible cytokine Cxcl10 (qPCR) (STING signaling [2]): robustly inhibited | IRF3 translocation (confocal analysis) (STING signaling [3]): reproducibly prevented STING trafficking and IRF3 phosphorylation | STING trafficking (confocal analysis) (STING signaling [3]): reproducibly prevented STING trafficking and IRF3 phosphorylation | Cxcl10 production in response to ISD (qPCR) (STING signaling [4]): impede the production of Cxcl10 | phosphorylation of TBK1, IRF3 and STING (Western blot) (STING signaling [5]): can prevent the phosphorylation of TBK1 and IRF3 as well as STING phosphorylation

N#Cc1c(NC(=O)c2cccc(F)c2Cl)n(CCc2ccccc2)c2nc3ccccc3nc12 [Compound Y5, 2-chloro-N-[3-cyano-1-(2-phenylethyl)-1H-pyrrolo [2,3-b]quinoxalin-2-yl]-3-floorobenzamide]
inhibitory activity of the type I IFN promoter (luciferase induction) (STING signaling [1]): showed robust inhibitory activity of the type I IFN promoter | criteria to inhibit STING dependent signaling (type I IFN promoter in human cells) (STING signaling [1]): found to meet the criteria to inhibit STING dependent signaling; also recorded: found to meet the criteria to inhibit STING dependent signaling and showed the most effective inhibitory activity | production of STING-inducible cytokine Cxcl10 (qPCR) (STING signaling [2]): robustly inhibited

N#Cc1c(NC(=O)c2c(F)cccc2Cl)n(CCc2ccccc2)c2nc3ccccc3nc12 [Compound Y6, 2-chloro-N-[3-cyano-1-(2-phenylethyl)-1H-pyrrolo [2,3-b]quinoxalin-2-yl]-6-fluorobenzamide]
inhibitory activity of the type I IFN promoter (luciferase induction) (STING signaling [1]): showed robust inhibitory activity of the type I IFN promoter | criteria to inhibit STING dependent signaling (type I IFN promoter in human cells) (STING signaling [1]): found to meet the criteria to inhibit STING dependent signaling; also recorded: found to meet the criteria to inhibit STING dependent signaling and showed the most effective inhibitory activity | production of STING-inducible cytokine Cxcl10 (qPCR) (STING signaling [2]): robustly inhibited

N#Cc1c(NC(=O)c2ccccc2Cl)n(CCc2cccc(F)c2)c2nc3ccccc3nc12 [Compound Y7, 2-chloro-N-{3-cyano-1-[2-(3-fluorophenyl)ethyl]-1H-pyrrolo[2,3-b]quinoxalin-2-yl}benzamide]
inhibitory activity of the type I IFN promoter (luciferase induction) (STING signaling [1]): showed robust inhibitory activity of the type I IFN promoter | criteria to inhibit STING dependent signaling (type I IFN promoter in human cells) (STING signaling [1]): found to meet the criteria to inhibit STING dependent signaling; also recorded: found to meet the criteria to inhibit STING dependent signaling and showed the most effective inhibitory activity | production of STING-inducible cytokine Cxcl10 (qPCR) (STING signaling [2]): robustly inhibited

N#Cc1c(NC(=O)c2cccc(Cl)c2Cl)n(CCc2ccccc2)c2nc3ccccc3nc12 [Compound Y8, 2,3-dichloro-N-[3-cyano-1-(2-phenylethyl)-1H-pyrrolo[2,3-b]quinoxalin-2-yl]benzamide]
inhibitory activity of the type I IFN promoter (luciferase induction) (STING signaling [1]): showed robust inhibitory activity of the type I IFN promoter | criteria to inhibit STING dependent signaling (type I IFN promoter in human cells) (STING signaling [1]): found to meet the criteria to inhibit STING dependent signaling; also recorded: found to meet the criteria to inhibit STING dependent signaling and showed the most effective inhibitory activity | production of STING-inducible cytokine Cxcl10 (qPCR) (STING signaling [2]): robustly inhibited | IRF3 translocation (confocal analysis) (STING signaling [3]): reproducibly prevented STING trafficking and IRF3 phosphorylation | STING trafficking (confocal analysis) (STING signaling [3]): reproducibly prevented STING trafficking and IRF3 phosphorylation | Cxcl10 production in response to ISD (qPCR) (STING signaling [4]): impede the production of Cxcl10 | phosphorylation of TBK1, IRF3 and STING (Western blot) (STING signaling [5]): can prevent the phosphorylation of TBK1 and IRF3 as well as STING phosphorylation

Cc1cccc(C(=O)Nc2c(C#N)c3nc4ccccc4nc3n2CCc2ccccc2)c1Cl [Compound Y9, 2-chloro-N-[3-cyano-1-(2-phenylethyl)-1H-pyrrolo [2,3-β]quinoxalin-2-yl]-3-methylbenzamide]
inhibitory activity of the type I IFN promoter (luciferase induction) (STING signaling [1]): showed robust inhibitory activity of the type I IFN promoter | criteria to inhibit STING dependent signaling (type I IFN promoter in human cells) (STING signaling [1]): found to meet the criteria to inhibit STING dependent signaling; also recorded: found to meet the criteria to inhibit STING dependent signaling and showed the most effective inhibitory activity | production of STING-inducible cytokine Cxcl10 (qPCR) (STING signaling [2]): robustly inhibited | IRF3 translocation (confocal analysis) (STING signaling [3]): reproducibly prevented STING trafficking and IRF3 phosphorylation | STING trafficking (confocal analysis) (STING signaling [3]): reproducibly prevented STING trafficking and IRF3 phosphorylation | Cxcl10 production in response to ISD (qPCR) (STING signaling [4]): impede the production of Cxcl10 | phosphorylation of TBK1, IRF3 and STING (Western blot) (STING signaling [5]): can prevent the phosphorylation of TBK1 and IRF3 as well as STING phosphorylation | inflammation in the heart (H&E staining) (TREX1-deficient mice): Less inflammation in the heart | survival of TREX1-deficient mice (TREX1-deficient mice; intraperitoneal, 25 μg/mouse, 5 months, compared to mock treated): extend the survival of TREX1-deficient mice
